# Data taken from patent publication US12637434B2, “Salt of arylaminoquinazoline-containing compound, and preparation method therefor and use thereof” (priority 2020, dated 2026).
# “Also recorded” adds a separate entry of the source. Like-named read-outs stand apart in the source and are kept apart here.
# How the values were obtained:
# [1] = Solubility test in water and pH 2.0 buffer (HPLC); format: physicochemical; conditions: for solubility in pH 2.0 buffer compared with Preparation Example 1 (in words): acidic conditions; for solubility: 25 °C, thermodynamic from solid; for Solubility (25° C., mg/mL) Medium: Water / Solubility (25° C., mg/mL) Medium: pH 2.0 buffer / solubility: 25° C.
# Experimental: 2. Solubility (Water and pH 2.0 Buffer)
# Detection Instrument: Agilent 1260 High Performance Liquid Chromatograph
# Detection medium: purified water, pH 2.0 phosphoric acid-disodium hydrogen phosphate buffer
# Preparation of control solution: it was taken that an appropriate amount of the referen ce substance of the compound of Formula 1, accurately weighed, dissolved completely by solven t and diluted to 100 μg/mL. 10 μL of the prepared solution was accurately measured and the conte nts of Compound 1 were determined by HPLC.
# The salts obtained in Preparation Example 1, Examples 1 to 4 and 9 and Comparative Examples 1 to 2 were tested for solubility in water and pH 2.0 buffer.
# [2] = Slurrying in organic solvents, crystalline form by XRPD; format: physicochemical; conditions: ~15 mg in 0.5 mL of solvents of Table 15, room temperature and 50° C.
# Experimental: Note: The sample of Example 1 (˜15 mg) was added to 0.5 mL of the different solvents listed in Table 15, and slurried at room temperature and 50° C., and the filtered sample was subjected to X-ray powder diffraction. The crystalline form was consistent with that of the dihydrochloride salt obtained in Example 1.
# Long-term stability test = format: physicochemical; conditions: for Purity (5 months) / Appearance / Crystalline form: 40 ± 2° C., 75% ± 5% RH, 5 months; for Appearance / Crystalline form: sealed with polyethylene film; for Purity (0 month): start of long-term stability test
# Experimental: An appropriate amount of the salt samples obtained in Examples 1 to 4 and 9 were sealed with a polyethylene film and placed for 5 months under the conditions of 40±2° C. and 75%±5% RH, and a long-term test was carried out.
# [3] = Solubility test in conventional organic solvents; format: physicochemical
# Experimental: Solubility Test in Conventional Organic Solvents
# The solubility test of the sample of Preparation Example 1 in different organic solvents was carried out by using the method in the Pharmacopoeia (Volume II, the general examples), and the solubility of the sample of Example 1 in different organic solvents was estimated using the gravimetric method, and the results were shown in Table 15.
# [4] = Solubility test in biological vehicles (FaSSIF, FeSSIF, SGF); format: physicochemical; conditions: for solubility at 0.5 h: 37 °C, thermodynamic from solid
# Experimental: 9. Determination of Solubility in Biological Vehicles
# The preparation procedures of the biological vehicles (SGF, FeSSIF and FaSSIF) used for solubility determination were shown in the following table:
# Test method: a sample to be tested was added to a biological vehicles and prepared into a solution or suspension having a target concentration of 10 mg/mL. The resulting solution or suspension was shaken continuously at 200 rpm at 37° C. The suspension was filtered at 0.5 hour and the concentration of the compound in the filtrate was determined by using HPLC.
# Solubility Test in Biological Vehicles
# The samples of Example 1 and Example 10 (20 mg each) were weighed, and different biological vehicles (2 mL) were added threreto to perform the solubility test, and the results were shown in Table 11.
# Solid stability test = format: physicochemical; conditions: 40° C./75% RH (open), 7 days
# Experimental: The dihydrochloride salt of Example 1 and the dihydrochloride salt tetrahydrate of Example 2 and Example 10 were all placed under the condition of 40° C./75% RH (open) for 7 days to perform the stability test.
# [5] = Mechanical stability test; format: physicochemical; conditions: mechanical grinding for 5 minutes
# Experimental: Mechanical Stability Test
# An appropriate amount of the dihydrochloride salt of Example 1 was subjected to mechanical grinding for 5 minutes, and X-ray powder diffraction was performed.
# human melanoma A375 = experiment: Pharmacodynamic experiment of human melanoma A375 nude mice xenograft tumor model; format: in vivo, nu/nu female nude mice; conditions: for Animal number (Survival/total) / Tumor weight / Inhibition rate %: once a day, 20 days; for Tumor weight / Inhibition rate %: Day 21; for Inhibition rate %: tumor weight
# Experimental: Pharmacodynamic Experiment of Human Melanoma A375 Nude Mice Xenograft Tumor Model
# A well-growing human melanoma A375 cell suspension was inoculated into the subcutaneous tissue of the forelimb axilla of nu/nu female nude mice in an inoculation volume of 0.1 mL containing approximately 1×10^7 tumor cells. When the tumor volume grew to 100 mm^3 or more, the mice with good tumor growth were selected, and the animals were evenly divided into 5 groups according to the tumor volume: a Vehicle group, a Vandetanib 12.5 mg/kg group, a Vandetanib 25 mg/kg group, an Example 1 sample 12.5 mg/kg group, and an Example 1 sample 25 mg/kg group, and there were 6 animals in each group. The Vehicle group was orally administered with distilled water, and the remaining groups were orally administered with the corresponding tested drugs in a dosing volume of 20 mL/kg, once a day, and continuously administered for 20 days. The animals were housed normally after administration, and the anti-tumor effect of the tested drugs was dynamically observed by using the method of measuring the diameter of the tumors. At the end of the experiment (Day 21), the animals were sacrificed, and the tumors, were stripped and weighed, and the tumor inhibition rate was calculated.
# [6] = pH 2.0 phosphoric acid-disodium hydrogen phosphate buffer
# [7] = Preparation Example 1 by Pharmacopoeia method, Example 1 estimated by gravimetric method
# [8] = purified water, water, purified water, read-out: Solubility (25° C., mg/mL) Medium: Water
# [9] = 0.5 h, 37° C., 200 rpm, target concentration 10 mg/mL, unit not given
structure (smiles),measurement,setting,value
COc1cc2c(Nc3ccc(Br)cc3F)ncnc2cc1OCCCCN(C)C [Comparative Example 1],"Solubility (25° C., mg/mL) Medium: Water",[1]; purified water,"Jelly-like, solubility"
same,"Solubility (25° C., mg/mL) Medium: Water","[1]; purified water, listed as monohydrochloride salt",jelly-like
COc1cc2c(Nc3ccc(Br)cc3F)ncnc2cc1OCCCCN(C)C [Comparative Example 2],"Solubility (25° C., mg/mL) Medium: Water",[1]; purified water,"Jelly-like, solubility"
same,"Solubility (25° C., mg/mL) Medium: Water","[1]; purified water, listed as malate salt",jelly-like
COc1cc2c(Nc3ccc(Br)cc3F)ncnc2cc1OCCCCN(C)C [Example 1],crystalline form after slurrying in conventional organic solvents (XRPD),[2],consistent; also recorded: stable
same,Purity (5 months),Long-term stability test,99.60%
same,Appearance,Long-term stability test,White powder
same,Crystalline form,Long-term stability test,Unchanged
same,Purity (0 month),Long-term stability test,99.62%
same,"Solubility (25° C., mg/mL) Medium: pH 2.0 buffer",[1]; [6],14.29 mg/mL
same,"Solubility (25° C., mg/mL) Medium: Water",[1]; purified water,40.07 mg/mL
same,solubility in pH 2.0 buffer compared with Preparation Example 1 (in words),[1],slightly better
same,water-solubility (in words),"[1]; water, listed as dihydrochloride salt",best of all samples
same,Solubility (mg/mL) in Acetone,[3]; [7],<0.46 mg/mL
same,Solubility (mg/mL) in Acetonitrile,[3]; [7],<0.38 mg/mL
same,Solubility (mg/mL) in Dichloromethane,[3]; [7],<0.44 mg/mL
same,Solubility (mg/mL) in Ethanol,[3]; [7],~0.55 mg/mL
same,Solubility (mg/mL) in Ethyl acetate,[3]; [7],<0.38 mg/mL
same,Solubility (mg/mL) in Isopropanol,[3]; [7],<0.40 mg/mL
same,Solubility (mg/mL) in Tetrahydrofuran,[3]; [7],<0.37 mg/mL
same,solubility in the other seven commonly used organic solvents (in words),[3]; all solvents of Table 15 except methanol,very poor solubility
same,solubility at 0.5 h,"[4]; FaSSIF, pH 6.5, fassif, 0.5 h, 37° C., 200 rpm, target concentration 10 mg/mL, unit inferred, read-out: Solubility in FaSSIF (pH 6.5)",> 10 mg/mL
same,solubility in biological vehicles with different pH (in words),"[4]; FaSSIF, FeSSIF, SGF",good solubility
same,solubility at 0.5 h,"[4]; FeSSIF, pH 5, fessif, 0.5 h, 37° C., 200 rpm, target concentration 10 mg/mL, unit inferred, read-out: Solubility in FeSSIF (pH 5.0)",5.07 mg/mL
same,solubility at 0.5 h,"[4]; SGF, pH 1.2, simulated gastric fluid, 0.5 h, 37° C., 200 rpm, target concentration 10 mg/mL, unit inferred, read-out: Solubility in SGF (pH 1.2)",> 10 mg/mL
same,Crystalline form,Solid stability test,Unchanged
same,Purity,Solid stability test,99.64%
same,crystalline form after mechanical grinding (XRPD),[5],not changed
same,Animal number (Survival/total),human melanoma A375; 12.5 mg/kg oral,6/6
same,Tumor weight,human melanoma A375; 12.5 mg/kg oral,1.77 ± 0.85 g
same,Inhibition rate %,human melanoma A375; 12.5 mg/kg oral,47.99%
same,Animal number (Survival/total),human melanoma A375; 25 mg/kg oral,6/6
same,Tumor weight,human melanoma A375; 25 mg/kg oral,1.34 ± 1.15 g
same,Inhibition rate %,human melanoma A375; 25 mg/kg oral,60.52%
same,effect on growth of tumors (in words),"human melanoma A375; 12.5 and 25 mg/kg oral, compared with the Vehicle group",significantly inhibit the growth of tumors
COc1cc2c(Nc3ccc(Br)cc3F)ncnc2cc1OCCCCN(C)C [Example 2],Purity (5 months),Long-term stability test,98.56%
same,Appearance,Long-term stability test,White powder
same,Crystalline form,Long-term stability test,Unchanged
same,Purity (0 month),Long-term stability test,98.55%
same,"Solubility (25° C., mg/mL) Medium: pH 2.0 buffer",[1]; [6],7.69 mg/mL
same,"Solubility (25° C., mg/mL) Medium: Water",[1]; purified water,34.32 mg/mL
same,solubility in pH 2.0 buffer compared with Preparation Example 1 (in words),[1],slightly lower
same,Crystalline form,Solid stability test,Unchanged
same,Purity,Solid stability test,98.54%
COc1cc2c(Nc3ccc(Br)cc3F)ncnc2cc1OCCCCN(C)C [Example 3],Purity (5 months),Long-term stability test,98.84%
same,Appearance,Long-term stability test,White powder
same,Crystalline form,Long-term stability test,Unchanged
same,Purity (0 month),Long-term stability test,98.83%
same,"Solubility (25° C., mg/mL) Medium: pH 2.0 buffer",[1]; [6],5.00 mg/mL
same,"Solubility (25° C., mg/mL) Medium: Water",[1]; purified water,10.91 mg/mL
same,solubility in pH 2.0 buffer compared with Preparation Example 1 (in words),[1],slightly lower
COc1cc2c(Nc3ccc(Br)cc3F)ncnc2cc1OCCCCN(C)C.O=C(O)/C=C\C(=O)O [Example 4],Purity (5 months),Long-term stability test,96.41%
same,Appearance,Long-term stability test,White powder
same,Crystalline form,Long-term stability test,Unchanged
same,Purity (0 month),Long-term stability test,96.72%
same,solubility in pH 2.0 buffer compared with Preparation Example 1 (in words),[1],slightly better
same,solubility,"[1]; pH 2.0 phosphoric acid-disodium hydrogen phosphate buffer, pH 2, aqueous buffer, pH 2.0 phosphoric acid-disodium hydrogen phosphate buffer, read-out: Solubility (25° C., mg/mL) Medium: pH 2.0 buffer",12.5 mg/mL
same,solubility,[1]; [8],13.7 mg/mL
COc1cc2c(Nc3ccc(Br)cc3F)ncnc2cc1OCCCCN(C)C.O=C(O)C(=O)O [Example 9],Purity (5 months),Long-term stability test,99.34%
same,Appearance,Long-term stability test,White powder
same,Crystalline form,Long-term stability test,Unchanged
same,Purity (0 month),Long-term stability test,99.38%
same,solubility,[1]; [8],2.89 mg/mL
COc1cc2c(Nc3ccc(Br)cc3F)ncnc2cc1OCCCCN(C)C [Example 10],Solubility in FeSSIF (pH 5.0),"[4]; 0.5 h, 37° C., 200 rpm, target concentration 10 mg/mL, unit inferred",7.3 mg/mL
same,Solubility in FaSSIF (pH 6.5),[4]; [9],"solution, >10"
same,Solubility in SGF (pH 1.2),[4]; [9],"solution, >10"
same,solubility in biological vehicles with different pH (in words),"[4]; FaSSIF, FeSSIF, SGF",good solubility
same,Crystalline form,Solid stability test,Unchanged
same,Purity,Solid stability test,99.74%
"COc1cc2c(Nc3ccc(Br)cc3F)ncnc2cc1OCCCCN(C)C [Preparation Example 1, 4-(4-bromo-2-fluoroanilino)-6-methoxy-7-[(4-N,N-dimethylamino)butoxy]quinazoline]","Solubility (25° C., mg/mL) Medium: Water",[1]; purified water,0.036 mg/mL
same,water-solubility (in words),[1]; water,very poor water-solubility
same,Solubility (mg/mL) in Acetone,[3]; [7],44.04 mg/mL
same,Solubility (mg/mL) in Acetonitrile,[3]; [7],10.66 mg/mL
same,Solubility (mg/mL) in Dichloromethane,[3]; [7],30.49 mg/mL
same,Solubility (mg/mL) in Ethanol,[3]; [7],205.2 mg/mL
same,Solubility (mg/mL) in Ethyl acetate,[3]; [7],30.38 mg/mL
same,Solubility (mg/mL) in Isopropanol,[3]; [7],51.05 mg/mL
same,Solubility (mg/mL) in Methanol,"[3]; Methanol, Preparation Example 1 by Pharmacopoeia method, Example 1 estimated by gravimetric method",>60 mg/mL
same,Solubility (mg/mL) in Tetrahydrofuran,[3]; [7],201.4 mg/mL
same,solubility,"[3]; organic solvent or mixture, thermodynamic from solid, read-out: solubility in various conventional organic solvents (all)",> 10 mg/mL
"COc1cc2c(Nc3ccc(Br)cc3F)ncnc2cc1OCC1CCN(C)CC1 [Vandetanib, reference compound]",Animal number (Survival/total),human melanoma A375; 12.5 mg/kg oral,6/6
same,Tumor weight,human melanoma A375; 12.5 mg/kg oral,2.89 ± 0.67 g
same,Inhibition rate %,human melanoma A375; 12.5 mg/kg oral,15.18%
same,Animal number (Survival/total),human melanoma A375; 25 mg/kg oral,6/6
same,Tumor weight,human melanoma A375; 25 mg/kg oral,1.90 ± 0.93 g
same,Inhibition rate %,human melanoma A375; 25 mg/kg oral,44.15%
